ChEMBL document CHEMBL4673302, “Efficient synthesis and antitumor evaluation of 4-aminomethyl-N-arylpyrazoles: Discovery of potent and selective agents for ovarian cancer” (Bioorg Med Chem, 2021)

What was measured:
[1] = tested on: OVCAR-3; assay: Anticancer activity against human OVCAR-3 cells assessed as cell growth inhibition measured after 48 hrs by sulforhodamine B assay; type: functional
[2] = tested on: MCF7; assay: Anticancer activity against human MCF7 cells assessed as cell growth inhibition measured after 48 hrs by sulforhodamine B assay; type: functional
[3] = tested on: HT-29; assay: Anticancer activity against human HT-29 cells assessed as cell growth inhibition measured after 48 hrs by sulforhodamine B assay; type: functional
[4] = tested on: PC-3; assay: Anticancer activity against human PC-3 cells assessed as cell growth inhibition measured after 48 hrs by sulforhodamine B assay; type: functional
[5] = tested on: U-251; assay: Anticancer activity against human U-251 cells assessed as cell growth inhibition measured after 48 hrs by sulforhodamine B assay; type: functional
[6] = tested on: K562; assay: Anticancer activity against human K562 cells assessed as cell growth inhibition measured after 48 hrs by sulforhodamine B assay; type: functional
[7] = tested on: 786-0; assay: Anticancer activity against human 786-0 cells assessed as cell growth inhibition measured after 48 hrs by sulforhodamine B assay; type: functional
[8] = tested on: NCI-H460; assay: Anticancer activity against human NCI-H460 cells assessed as cell growth inhibition measured after 48 hrs by sulforhodamine B assay; type: functional
[9] = tested on: HaCaT; assay: (§1) Cytotoxicity against human HaCaT cells assessed as cell growth inhibition measured after 48 hrs by sulforhodamine B assay; type: cell-based; conditions: hacat, 48 h
[10] = as §1; type: cell-based; conditions: HaCaT cells

## CCOC(=O)c1nn(-c2ccc(Cl)cc2)c(-c2ccc([N+](=O)[O-])cc2)c1CNC(C)(C)C [listing 1 of 2 here]
[1]; 48 h
  GI50: 206 µM
[2]; 48 h
  GI50: > 548 µM
[3]; Homo sapiens, HT-29, 48 h
  GI50: 42.3 µM
[4]; Homo sapiens, PC-3, 48 h
  GI50: > 548 µM
[5]; Homo sapiens, U-251, 48 h
  GI50: > 548 µM
[6]; 48 h
  GI50: 181 µM
[7]; 48 h
  GI50: 316 µM
[8]; 48 h
  GI50: > 548 µM
[9]
  GI50: 10.3 µM

## CCOC(=O)c1nn(-c2ccc(Cl)cc2)c(-c2ccc(Cl)cc2)c1CNC(C)(C)C
[1]; 48 h
  GI50: 21.6 µM
[2]; 48 h
  GI50: 120 µM
[3]; 48 h
  GI50: 57.7 µM
[4]; 48 h
  GI50: 196 µM
[5]; 48 h
  GI50: 6.4 µM
[6]; 48 h
  GI50: 11.2 µM
[7]; 48 h
  GI50: 73.7 µM
[8]; 48 h
  GI50: 144 µM
[9]
  GI50: 2.9 µM

## CCOC(=O)c1nn(-c2ccc(Cl)cc2)c(-c2ccccc2)c1CNC(C)(C)C
[1]; 48 h
  GI50: > 559 µM
[2]; 48 h
  GI50: > 559 µM
[3]; 48 h
  GI50: > 559 µM
[4]; 48 h
  GI50: > 559 µM
[5]; 48 h
  GI50: > 559 µM
[6]; 48 h
  GI50: > 559 µM
[7]; 48 h
  GI50: > 559 µM
[8]; 48 h
  GI50: > 559 µM
[9]
  GI50: > 559 µM

## COc1ccc(-c2c(CNC(C)(C)C)c(C(=O)O)nn2-c2ccccc2)cc1
[1]; Homo sapiens, OVCAR-3, 48 h
  GI50: > 659 µM
[2]; Homo sapiens, MCF7, 48 h
  GI50: > 659 µM
[3]; Homo sapiens, HT-29, 48 h
  GI50: > 659 µM
[4]; Homo sapiens, PC-3, 48 h
  GI50: > 659 µM
[5]; Homo sapiens, U-251, 48 h
  GI50: > 659 µM
[6]; Homo sapiens, K562, 48 h
  GI50: > 659 µM
[7]; Homo sapiens, 786-0, 48 h
  GI50: > 659 µM
[8]; Homo sapiens, NCI-H460, 48 h
  GI50: > 659 µM
[10]
  GI50 at 48 h: > 659 µM

## CCOC(=O)c1nn(-c2ccc(Cl)cc2)c(-c2ccc([N+](=O)[O-])cc2)c1CNC(C)(C)C [listing 2 of 2 here]
[1]; 48 h
  GI50: 16.1 µM
[2]; 48 h
  GI50: 205 µM
[3]; 48 h
  GI50: 40.8 µM
[4]; 48 h
  GI50: 304 µM
[5]; 48 h
  GI50: 340 µM
[6]; 48 h
  GI50: 14.8 µM
[7]; 48 h
  GI50: 51.2 µM
[8]; 48 h
  GI50: 52.8 µM
[9]
  GI50: 145 µM

## CCOC(=O)c1nn(-c2ccc(Cl)cc2)c(-c2ccc(F)cc2)c1CNC(C)(C)C
[1]; 48 h
  GI50: > 538 µM
[2]; 48 h
  GI50: > 538 µM
[3]; 48 h
  GI50: > 538 µM
[4]; 48 h
  GI50: > 538 µM
[5]; 48 h
  GI50: > 538 µM
[6]; 48 h
  GI50: > 538 µM
[7]; 48 h
  GI50: > 538 µM
[8]; 48 h
  GI50: > 538 µM
[9]
  GI50: > 538 µM

## CC(C)(C)NCc1c(C(=O)O)nn(-c2ccc(Cl)cc2)c1-c1ccc(F)cc1
[1]; Homo sapiens, OVCAR-3, 48 h
  GI50: 116 µM
[2]; Homo sapiens, MCF7, 48 h
  GI50: 270 µM
[3]; Homo sapiens, HT-29, 48 h
  GI50: > 623 µM
[4]; Homo sapiens, PC-3, 48 h
  GI50: > 623 µM
[5]; Homo sapiens, U-251, 48 h
  GI50: > 623 µM
[6]; Homo sapiens, K562, 48 h
  GI50: > 623 µM
[7]; Homo sapiens, 786-0, 48 h
  GI50: 204 µM
[8]; Homo sapiens, NCI-H460, 48 h
  GI50: > 623 µM
[10]
  GI50 at 48 h: 28.7 µM
